Measurements as given in US6573274B1, “Sulfonamide compounds and uses thereof as medicines” (Fujisawa Pharmaceutical Co. Ltd., priority 1998, dated 2003).
Counter-ions that a name gives are not always drawn.

Row | melting point [°C] | Compound
1 | 164 to 166 | CCCCS(=O)(=O)NC(=O)c1cc(C)c2nc(C)n(Cc3ccc(OCCC)cc3Cl)c2n1 [Example 36, 5-(1-butanesulfonylcarbamoyl)-3-[2-chloro-4-(1-propoxy)benzyl]-2,7-dimethyl-3H-imidazo[4,5-b]pyridine]
2 | 161 to 162 | CCCCCS(=O)(=O)NC(=O)c1cc(C)c2nc(C)n(Cc3ccc(OCCC)cc3Cl)c2n1 [Example 35, 3-(2-chloro-4-(1-propoxy)benzyl)-2,7-dimethyl-5-(1-pentanesulfonylcarbamoyl)-3H-imidazo[4,5-b]pyridine]
3 | 231 to 233 | CCCCCS(=O)(=O)NC(=O)c1ccc2nc(C)n(Cc3ccc(N(C)C(=O)OC(C)(C)C)cc3Cl)c2n1.[Na]
4 | 152 to 155 | CCCNS(=O)(=O)NC(=O)c1ccc2nc(C)n(Cc3ccc(OCC)cc3Cl)c2n1 [Example 10, 3-(2-chloro-4-ethoxybenzyl)-2-methyl-5-((1-propylaminosulfonyl)carbamoyl)-3H-imidazo[4,5-b]pyridine]
5 | 198 to 199 | CCCCCS(=O)(=O)NC(=O)c1ccc2nc(C)n(Cc3ccc(NC(=O)OC(C)C)cc3Cl)c2n1 [Example 108, 3-(4-(N-(isopropoxycarbonyl)amino)-2-chlorobenzyl)-2-methyl-5-(1-pentanesulfonylcarbamoyl)-3H-imidazo[4,5-b]pyridine]
6 | 184 to 185 | CCCCCS(=O)(=O)NC(=O)c1ccc2nc(C)n(Cc3ccc(-c4ccco4)cc3Cl)c2n1 [Example 70, 3-[2-chloro-4-(2-furyl)benzyl]-2-methyl-5-(1-pentanesulfonylcarbamoyl)-3H-imidazo[4,5-b]pyridine]
7 | 161 to 163 | CCCCCS(=O)(=O)NC(=O)c1ccc2nc(C)n(Cc3cnc(Cl)cc3Cl)c2n1
8 | > 250 | CCCCCS(=O)(=O)NC(=O)c1ccc2nc(C)n(Cc3ccc(-c4ccc(Cl)s4)cc3Cl)c2n1.[Na]
9 | 232 to 233 | CCCCCS(=O)(=O)NC(=O)c1ccc2nc(C)n(Cc3ncc(NC(=O)OCC)cc3Cl)c2n1 [Example 132, 3-[(3-chloro-5-(N-(ethoxycarbonyl)amino)pyridin-2-yl)methyl]-2-methyl-5-(1-pentanesulfonylcarbamoyl)-3H-imidazo[4,5-b]pyridine]
10 | 130 to 133 | CCCCCS(=O)(=O)NC(=O)c1ccc2nc(C)n(Cc3ccc(OC(C)C)cc3Cl)c2n1 [Example 14, 3-(2-chloro-4-isopropoxybenzyl)-2-methyl-5-(1-pentanesulfonylcarbamoyl)-3H-imidazo[4,5-b]pyridine]
11 | 171 to 172 | CCCCCS(=O)(=O)NC(=O)c1ccc2nc(C)n(Cc3ccc(-n4cccc4)cc3Cl)c2n1 [Example 83, 3-(2-chloro-4-(1-pyrrolyl)benzyl)-2-methyl-5-(1-pentanesulfonylcarbamoyl)-3H-imidazo[4,5-b]pyridine]
12 | 155 to 158 | CCCCCOc1ccc(Cn2c(C)nc3ccc(C(=O)NS(=O)(=O)NCCC)nc32)c(Cl)c1 [Example 25, 5-((1-propylaminosulfonyl)carbamoyl)-3-(2-chloro-4-(1-pentyloxy)benzyl)-2-methyl-3H-imidazo[4,5-b]pyridine]
13 | 236 to 239 | CCC/C=C/S(=O)(=O)NC(=O)c1ccc2nc(C)n(Cc3ncc(NC(=O)OCC)cc3Cl)c2n1 (as salt: sodium) [Example 133, 3-[(3-chloro-5-(N-(ethoxycarbonyl)amino)pyridin-2-yl)methyl]-2-methyl-5-((E)-1-penten-1-ylsulfonylcarbamoyl)-3H-imidazo[4,5-b]pyridine]
14 | 160 to 161 | CCCCCS(=O)(=O)NC(=O)c1ccc2nc(C)n(Cc3ccc(OCC4CCCC4)cc3Cl)c2n1 [Example 27, 3-(2-chloro-4-((cyclopentylmethyl)oxy)benzyl)-2-methyl-5-(1-pentanesulfonylcarbamoyl)-3H-imidazo[4,5-b]pyridine]
15 | 242 to 244 | CCC/C=C/S(=O)(=O)NC(=O)c1ccc2nc(C)n(Cc3ncc(NC(=O)OC(C)C)cc3Cl)c2n1 [Example 136, 3-[(5-(N-(isopropoxycarbonyl)amino)-3-chloropyridin-2-yl)methyl]-2-methyl-5-((E)-1-penten-1-ylsulfonylcarbamoyl)-3H-imidazo[4,5-b]pyridine]
16 | 181 to 182 | CCCCS(=O)(=O)NC(=O)c1ccc2nc(C)n(Cc3ccc(NC(=O)OC(C)C)cc3Cl)c2n1 [Example 103, 5-(1-butanesulfonylcarbamoyl)-3-(2-chloro-4-(N-(isopropoxycarbonyl)amino)benzyl)-2-methyl-3H-imidazo[4,5-b]pyridine]
17 | 145 to 146 | CCCCCOc1ccc(Cn2c(C)nc3ccc(C(=O)NS(=O)(=O)CCCC)nc32)c(Cl)c1 [Example 21, 5-(1-butanesulfonylcarbamoyl)-3-(2-chloro-4-(1-pentyloxy)benzyl)-2-methyl-3H-imidazo[4,5-b]pyridine]
18 | 136 to 138 | CCCCCOc1ccc(Cn2c(C)nc3ccc(C(=O)NS(=O)(=O)NCCCC)nc32)c(Cl)c1 [Example 26, 5-((1-butylaminosulfonyl)carbamoyl)-3-(2-chloro-4-(1-pentyloxy)benzyl)-2-methyl-3H-imidazo[4,5-b]pyridine]
19 | 229 to 231 | CCCCCS(=O)(=O)NC(=O)c1ccc2nc(C)n(Cc3ccc4c(nc(C)n4C)c3Cl)c2n1 [Example 120, 3-[(4-chloro-1,2-dimethyl-1H-benzimidazol-5-yl)methyl]-2-methyl-5-(1-pentanesulfonylcarbamoyl)-3H-imidazo[4,5-b]pyridine]
20 | 154 to 155 | CCCCCOc1ccc(Cn2c(C)nc3ccc(C(=O)NS(=O)(=O)c4ccc(Cl)s4)nc32)c(Cl)c1 [Example 24, 3-[2-chloro-4-(1-pentyloxy)benzyl]-2-methyl-5-[(5-chlorothiophen-2-yl)sulfonylcarbamoyl]-3H-imidazo[4,5-b]pyridine]
21 | 175 to 177 | CCCCS(=O)(=O)NC(=O)c1ccc2nc(C)n(Cc3ccc(OC)cc3Cl)c2n1 [Example 6, 5-(1-butanesulfonylcarbamoyl)-3-(2-chloro-4-methoxybenzyl)-2-methyl-3H-imidazo[4,5-b]pyridine]
22 | 177 to 178 | CCCCCS(=O)(=O)NC(=O)c1cc(C)c2nc(C)n(Cc3ccc(-c4ccco4)cc3Cl)c2n1 [Example 86, 3-[2-chloro-4-(2-furyl)benzyl]-2,7-dimethyl-5-(1-pentanesulfonylcarbamoyl)-3H-imidazo[4,5-b]pyridine]
23 | 145 to 146 | CCCCS(=O)(=O)NC(=O)c1ccc2nc(CC)n(Cc3ccc(OCC4CCCCC4)cc3Cl)c2n1 [Example 67, 5-(1-butanesulfonylcarbamoyl)-3-(2-chloro-4-(cyclohexylmethyloxy)benzyl)-2-ethyl-3H-imidazo[4,5-b]pyridine]

Row | Compound | melting point [°C]
24 | CCCCOc1ccc(Cn2c(C)nc3ccc(C(=O)NS(=O)(=O)CCCC)nc32)c(Cl)c1 [Example 18, 5-(1-butanesulfonylcarbamoyl)-3-(2-chloro-4-(1-butoxy)benzyl)-2-methyl-3H-imidazo[4,5-b]pyridine] | 144 to 145
25 | CCCCCS(=O)(=O)NC(=O)c1ccc2nc(C)n(Cc3ncc(NC(=O)OC(C)(C)C)cc3Cl)c2n1 [Example 129, 3-[(5-(N-(tert-butoxycarbonyl)amino)-3-chloropyridin-2-yl)methyl]-2-methyl-5-(1-pentanesulfonylcarbamoyl)-3H-imidazo[4,5-b]pyridine] | 193 to 194
